Results on ten compounds are retold here after patent US9902725B2, “Heterocyclic derivatives as RORgamma modulators” (GENFIT, priority 2014, dated 2018).

Data set [1] concerns the target T1, CYP1A2 (Homo sapiens, UniProt P05177).
T1 sequence (P05177 1-516): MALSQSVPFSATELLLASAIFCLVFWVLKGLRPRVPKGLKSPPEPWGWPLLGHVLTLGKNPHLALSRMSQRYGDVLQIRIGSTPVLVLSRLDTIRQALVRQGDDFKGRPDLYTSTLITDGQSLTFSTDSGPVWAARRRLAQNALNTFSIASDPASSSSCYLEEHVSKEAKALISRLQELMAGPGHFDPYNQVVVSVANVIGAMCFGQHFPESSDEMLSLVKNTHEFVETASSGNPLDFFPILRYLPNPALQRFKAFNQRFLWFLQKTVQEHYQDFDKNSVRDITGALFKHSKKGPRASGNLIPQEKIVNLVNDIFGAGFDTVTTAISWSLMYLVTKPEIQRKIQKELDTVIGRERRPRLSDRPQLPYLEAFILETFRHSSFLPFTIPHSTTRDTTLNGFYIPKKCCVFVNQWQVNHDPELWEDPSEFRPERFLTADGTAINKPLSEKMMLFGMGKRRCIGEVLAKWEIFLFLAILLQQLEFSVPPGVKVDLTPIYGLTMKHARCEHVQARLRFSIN
Briefly: CYP inhibition CYP1A2 (CEREP). The data set is classed as in vitro ADME. The following applies: human, recombinant CYP1A2, probe 3-cyano-7-ethoxycoumarin, single concentration (typically 10 μM), read-out: CYP 1A2 (% inhibition of Control). How it is done: (§1) All the assays were conducted at CEREP (CEREP, France and USA). Metabolic compound stability was tested in human (CEREP, Ref 607) and mouse (CEREP, Ref: 806) microsomes. Inhibition of human drug-metabolizing cytochromes P450 was tested on the five most commonly responsible enzymes of metabolism of xenobiotics, CYP1A2 (CEREP, Ref 389), CYP2C9 (CEREP, Ref 412), CYP2C19 (CEREP, Ref 390), CYP2D6 (CEREP, Ref 1338) and CYP3A4 (CEREP, Ref 391).
(§2) Briefly, CEREP's CYP inhibition assay uses traditional probe substrates, which are specific to individual CYP isoforms. 3-cyano-7-ethoxycoumarin is mainly catalyzed by CYP1A2 and CYP2C19, 3-[2-(N,N-diethyl-N-methylammonium)ethyl]-7-methoxy-4-methylcoumarin for CYP2C9 and CYP2D6 and finally, 7-benzyloxy-4-trifluoromethylcoumarin is pathway catalyzed predominantly by CYP3A4. The inhibition assays were performed with human recombinant CYP isoforms preparations. HPLC MS/MS methods are used to detect metabolites in these assays. Compounds were tested at single concentrations (typically 10 μM) and data were expressed as percent of control inhibition.

Data set [2] deals with CYP3A4 (Homo sapiens, UniProt P08684). In words: CYP inhibition CYP3A4 (CEREP). It is filed as in vitro ADME. The conditions noted are these: human, recombinant CYP3A4, probe 7-benzyloxy-4-trifluoromethylcoumarin, single concentration (typically 10 μM), read-out: CYP 3A4 (% inhibition of Control). How it is done: as §1, §2
Chain of CYP3A4 (P08684 whole entry): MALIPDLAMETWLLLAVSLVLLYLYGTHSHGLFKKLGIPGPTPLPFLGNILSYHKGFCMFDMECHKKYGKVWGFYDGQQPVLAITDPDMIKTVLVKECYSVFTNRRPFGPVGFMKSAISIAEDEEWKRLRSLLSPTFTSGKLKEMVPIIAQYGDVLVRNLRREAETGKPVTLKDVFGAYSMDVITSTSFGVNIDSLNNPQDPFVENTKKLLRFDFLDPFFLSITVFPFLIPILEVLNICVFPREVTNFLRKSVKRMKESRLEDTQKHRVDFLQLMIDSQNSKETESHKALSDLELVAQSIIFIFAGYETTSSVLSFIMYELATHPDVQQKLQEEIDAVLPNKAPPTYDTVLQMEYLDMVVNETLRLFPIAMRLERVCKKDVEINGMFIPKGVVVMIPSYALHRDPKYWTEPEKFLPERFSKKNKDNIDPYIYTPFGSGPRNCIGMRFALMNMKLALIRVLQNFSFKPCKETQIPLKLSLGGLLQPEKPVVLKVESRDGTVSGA
For data set [3], the target named is CYP2C9 (Homo sapiens, UniProt P11712). In words: CYP inhibition CYP2C9 (CEREP). The data set is classed as in vitro ADME. The conditions noted are these: human, recombinant CYP2C9, human recombinant CYP, single concentration (typically 10 μM); read-out: CYP 2C9 (% inhibition of Control). How it is done:
as §1, §2

For data set [4], the target named is T2, human RORγt (Homo sapiens, UniProt P51449).
T2 sequence (P51449 1-497 isoform P51449-2): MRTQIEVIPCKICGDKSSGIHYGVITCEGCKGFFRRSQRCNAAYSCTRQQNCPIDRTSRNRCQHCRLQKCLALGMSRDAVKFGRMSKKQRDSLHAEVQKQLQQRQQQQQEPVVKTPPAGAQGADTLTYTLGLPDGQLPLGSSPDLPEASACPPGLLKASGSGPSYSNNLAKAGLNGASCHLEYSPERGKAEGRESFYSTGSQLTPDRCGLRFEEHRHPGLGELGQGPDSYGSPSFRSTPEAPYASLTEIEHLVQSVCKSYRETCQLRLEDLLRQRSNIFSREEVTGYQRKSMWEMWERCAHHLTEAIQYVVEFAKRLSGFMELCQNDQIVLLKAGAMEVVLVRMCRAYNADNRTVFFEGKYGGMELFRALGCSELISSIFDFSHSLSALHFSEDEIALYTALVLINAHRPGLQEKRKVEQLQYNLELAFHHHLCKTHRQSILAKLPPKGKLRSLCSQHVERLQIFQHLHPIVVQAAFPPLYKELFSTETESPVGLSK
In words: IL-17 secretion from EL4 murine lymphoma overexpressing human RORγt. It is filed as cell-based. Set-up: expressed in transfected cells; host or cells: EL-4 murine lymphoma. The following applies: IL-17 secretion inhibition, PMA and ionomycin stimulation, 24 h. In outline:
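EL4 murine lymphoma cells electroporated with hRORγt plasmid, seeded 150000 cells/well, pretreated with compound, then stimulated with PMA (10 ng/mL) and ionomycin (1 μM final) with compound for a further 24 h at 37° C. IL-17 in supernatant measured by HTRF or ELISA.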

A short description of data set [5]: Microsomal stability, mouse microsomes (CEREP). The conditions noted are these: 0.1 μM, 0.1 mg/mL microsomal protein. It is filed as in vitro ADME. How it is done:
as §1
(§3) Briefly, the standard conditions for CEREP's stability assays include incubation of test compound at 0.1 μM with human or mouse microsomes for 60 minutes in duplicate. The protein concentration of microsomes is 0.1 mg/mL. The parent compound is detected by HPLC-MS/MS analysis. The quantity of the parent compound that remains intact upon 60 minutes of microsome exposure (% remaining) is calculated by comparing the peak area of the parent compound at 60 minutes of exposure to the time zero.

Data set [6] deals with CYP2C19 (Homo sapiens, UniProt P33261). In words: CYP inhibition CYP2C19 (CEREP). The data set is classed as in vitro ADME. The conditions noted are these: human, recombinant CYP2C19, probe 3-cyano-7-ethoxycoumarin, single concentration (typically 10 μM), read-out: CYP 2C19 (% inhibition of Control). On the procedure:
as §1, §2

Data set [7] is described as follows: Microsomal stability, human microsomes (CEREP). The following applies: 0.1 μM, 0.1 mg/mL microsomal protein. It is filed as in vitro ADME. On the procedure:
as §1, §3

Chain of CYP2C19 (P33261 whole entry): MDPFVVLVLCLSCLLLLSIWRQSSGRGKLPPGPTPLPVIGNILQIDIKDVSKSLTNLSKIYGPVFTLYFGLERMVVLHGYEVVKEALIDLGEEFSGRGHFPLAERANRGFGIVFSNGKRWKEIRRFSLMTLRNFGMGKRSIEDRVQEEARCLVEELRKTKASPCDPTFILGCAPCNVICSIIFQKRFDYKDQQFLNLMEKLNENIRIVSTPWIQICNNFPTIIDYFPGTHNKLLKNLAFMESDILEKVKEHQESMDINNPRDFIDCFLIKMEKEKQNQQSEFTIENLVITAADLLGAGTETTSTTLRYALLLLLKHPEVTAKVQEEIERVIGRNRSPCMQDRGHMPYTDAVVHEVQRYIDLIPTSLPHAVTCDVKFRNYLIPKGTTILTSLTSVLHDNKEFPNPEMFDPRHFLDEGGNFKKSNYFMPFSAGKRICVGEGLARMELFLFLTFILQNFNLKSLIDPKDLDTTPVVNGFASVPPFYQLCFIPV
Chain of CYP2C9 (P11712 whole entry): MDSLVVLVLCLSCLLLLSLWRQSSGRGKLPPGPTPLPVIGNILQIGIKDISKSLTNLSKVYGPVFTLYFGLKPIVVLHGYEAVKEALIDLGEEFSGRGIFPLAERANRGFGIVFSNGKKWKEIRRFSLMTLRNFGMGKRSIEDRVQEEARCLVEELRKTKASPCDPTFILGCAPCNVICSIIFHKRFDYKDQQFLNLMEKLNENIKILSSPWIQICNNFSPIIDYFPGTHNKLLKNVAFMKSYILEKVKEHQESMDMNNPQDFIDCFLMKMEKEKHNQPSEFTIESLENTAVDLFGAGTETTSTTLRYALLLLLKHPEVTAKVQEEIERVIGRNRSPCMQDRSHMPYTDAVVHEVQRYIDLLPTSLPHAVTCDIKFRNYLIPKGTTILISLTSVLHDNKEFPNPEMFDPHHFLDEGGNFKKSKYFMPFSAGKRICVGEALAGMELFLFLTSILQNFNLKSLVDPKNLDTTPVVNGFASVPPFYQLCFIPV

As to `O=C(O)CCc1c[nH]c2ccc(CC(=O)NC(c3ccccc3)c3ccccc3N3CCCCC3)cc12` (stereo not shown) [Cpd. 1, 3-{5-[({phenyl[2-(piperidin-1-yl)phenyl]methyl}carbamoyl)methyl]-1H-indol-3-yl}propanoic acid], the inhibition (commonly the relative decrease from the control value, in per cent) at 10 µM in data set [1] was 1%; in data set [2], 19%; in data set [3], 12%; in data set [6], 13%. In addition, the IC50 (usually the midpoint of a concentration-inhibition curve) in data set [4] is 1000 to 10000 nM. Moreover, the “Mouse microsomes (% Cpd. remaining at 60 min)” value in data set [5] worked out at 35%. Moreover, the “Human microsomes (% Cpd. remaining at 60 min)” value in data set [7] is given as 54%.

As for `O=C(O)CCc1c[nH]c2ccc(CC(=O)NC(c3cccc(F)c3)c3ccccc3N3CCCCC3)cc12` (stereo not shown) [Cpd. 3, 3-[5-({[(3-fluorophenyl)[2-(piperidin-1-yl)phenyl]methyl]carbamoyl}methyl)-1H-indol-3-yl]propanoic acid], the inhibition at 10 µM was 2.9% in data set [1], 60.9% in data set [2], 52.7% in data set [3] and 58.8% in data set [6]. In data set [4], the IC50 was in the range of 1000 to 10000 nM. Moreover, in data set [5], the “Mouse microsomes (% Cpd. remaining at 60 min)” value is 22%. In addition, the “Human microsomes (% Cpd. remaining at 60 min)” value in data set [7] came out at 36%.

Take `Cc1ccc(C(NC(=O)Cc2ccc3[nH]cc(CCC(=O)O)c3c2)c2ccccc2)c(N2CCCC2)c1` (stereo not shown) [Cpd. 5, 3-{5-[({[4-methyl-2-(pyrrolidin-1-yl)phenyl](phenyl)methyl}carbamoyl)methyl]-1H-indol-3-yl}propanoic acid]: the inhibition at 10 µM in data set [1] was determined as 4.4%; in data set [2] it was 25.8%; in data set [3], 35.9%; in data set [6], 25%. The IC50 in data set [4] is below 1000 nM. In addition, the “Mouse microsomes (% Cpd. remaining at 60 min)” value in data set [5] was found to be 50%. For the same compound, the “Human microsomes (% Cpd. remaining at 60 min)” value in data set [7] stood at 89%.

With `CC(C)CC(NC(=O)Cc1ccc2[nH]cc(CCC(=O)O)c2c1)c1ccccc1N1CCCCC1` (stereo not shown) [Cpd. 29, 3-{5-[({3-methyl-1-[2-(piperidin-1-yl)phenyl]butyl}carbamoyl)methyl]-1H-indol-3-yl}propanoic acid], the inhibition at 10 µM in data set [1] is -8.2%; in data set [2], 47.2%; in data set [3], 14.9%; in data set [6] it was 14.1%. In data set [4], the half-inhibitory concentration (IC50) lay within 1000 to 10000 nM. In data set [5], the “Mouse microsomes (% Cpd. remaining at 60 min)” value is 20%. Moreover, in data set [7], the “Human microsomes (% Cpd. remaining at 60 min)” value came to 23%.

In the case of `O=C(O)CCc1c[nH]c2ccc(CC(=O)NC(c3ccccc3)c3ccc(C(F)(F)F)cc3N3CCCC3)cc12` (stereo not shown) [Cpd. 48, 3-{5-[({phenyl[2-(pyrrolidin-1-yl)-4-(trifluoromethyl)phenyl]methyl}carbamoyl)methyl]-1H-indol-3-yl}propanoic acid], the inhibition at 10 µM is 10.7% in data set [1], 33.7% in data set [2], 24.6% in data set [3] and 35% in data set [6]. Besides, the concentration for half-maximal inhibition (IC50) in data set [4] was in the range of 1000 to 10000 nM. Moreover, in data set [5], the “Mouse microsomes (% Cpd. remaining at 60 min)” value was 53%. Also, in data set [7], the “Human microsomes (% Cpd. remaining at 60 min)” value is on record as 83%.

Regarding `O=C(O)CCc1c[nH]c2ccc(CC(=O)NC(c3ccccc3)c3ccc(Br)cc3N3CCCC3)cc12` (stereo not shown) [Cpd. 50, 3-{5-[({[4-bromo-2-(pyrrolidin-1-yl)phenyl](phenyl)methyl}carbamoyl)methyl]-1H-indol-3-yl}propanoic acid], the inhibition at 10 µM amounted to 0.9% in data set [1], 36.8% in data set [2], 15.8% in data set [3] and 32.3% in data set [6]. Moreover, in data set [4], the 50% inhibitory concentration (IC50) was below 1000 nM. The “Mouse microsomes (% Cpd. remaining at 60 min)” value in data set [5] turned out to be 38%. In addition, in data set [7], the “Human microsomes (% Cpd. remaining at 60 min)” value is on record as 92%.

In the case of `Cc1ccc(C(NC(=O)Cc2ccc3[nH]cc(CCC(=O)O)c3c2)c2ccccc2)c(N2CCCCC2)c1` (stereo not shown) [Cpd. 77, 3-{5-[({[4-methyl-2-(piperidin-1-yl)phenyl](phenyl)methyl}carbamoyl)methyl]-1H-indol-3-yl}propanoic acid], the inhibition at 10 µM in data set [1] was -0.9%; in data set [2] it was 31.3%; in data set [3], 23.2%; in data set [6], 28.1%. In data set [4], this compound came in with a half-inhibitory concentration (IC50) below 1000 nM. For the same compound, in data set [5], the “Mouse microsomes (% Cpd. remaining at 60 min)” value is reported as 31%. Further, in data set [7], the “Human microsomes (% Cpd. remaining at 60 min)” value is 88%.

As to `COc1ccc(C(NC(=O)Cc2ccc3[nH]cc(CCC(=O)O)c3c2)c2ccccc2)c(N2CCCCC2)c1` (stereo not shown) [Cpd. 111, 3-{5-[({[4-methoxy-2-(piperidin-1-yl)phenyl](phenyl)methyl}carbamoyl)methyl]-1H-indol-3-yl}propanoic acid], the inhibition at 10 µM in data set [1] is -12.4%; in data set [2] it was 40.1%; in data set [3], 28.2%; in data set [6], 29.4%. In data set [4], this compound yielded an IC50 of 1000 to 10000 nM. Further, the “Mouse microsomes (% Cpd. remaining at 60 min)” value in data set [5] is reported as 37%. For the same compound, in data set [7], the “Human microsomes (% Cpd. remaining at 60 min)” value is given as 88%.

On to `Cc1ccc(C(NC(=O)Cc2ccc3[nH]cc(CCC(=O)O)c3c2)c2ccccc2)c(N(C)C)c1` (stereo not shown) [Cpd. 192, 3-{5-[({[2-(dimethylamino)-4-methylphenyl](phenyl)methyl}carbamoyl)methyl]-1H-indol-3-yl}propanoic acid], for which the inhibition at 10 µM was -1.9% in data set [1], 30.9% in data set [2], 28.6% in data set [3] and 31.2% in data set [6]. In data set [4], this compound had an IC50 below 1000 nM. In addition, in data set [5], the “Mouse microsomes (% Cpd. remaining at 60 min)” value was determined as 66%. For the same compound, the “Human microsomes (% Cpd. remaining at 60 min)” value in data set [7] is given as 79%.

As for `O=C(O)CCCc1c[nH]c2ccc(CC(=O)NC(c3ccccc3)c3ccccc3N3CCCCC3)cc12` (stereo not shown) [Cpd. 212, 4-{5-[({phenyl[2-(piperidin-1-yl)phenyl]methyl}carbamoyl)methyl]-1H-indol-3-yl}butanoic acid], the inhibition at 10 µM in data set [1] is -5.4%; in data set [2], 31%; in data set [3], 29.5%; in data set [6], 32.2%. The compound further registered a 50% inhibitory concentration (IC50) in data set [4] of 1000 to 10000 nM. The “Mouse microsomes (% Cpd. remaining at 60 min)” value in data set [5] is listed as 11%. In data set [7], the “Human microsomes (% Cpd. remaining at 60 min)” value was 26%.
